Laboratory results: article PMC3112094, “Pro-apoptotic activity of α-bisabolol in preclinical models of primary human acute leukemia cells” (Journal of Translational Medicine, 2011)

Legend:
Assay type in all cases: cell-based, human
leukemic blasts [1] = test: PARP cleavage (Western blot) and DNA ladder; conditions: blasts of case Ph^-B-ALL #01 after α-bisabolol exposure
Description: Cells were homogenized at 4°C in 50 mM Tris-HCl (pH 8) containing 0.1% Nonidet-P40 (NP-40), 200 mM KCl, 2 mM MgCl2, 50 μM ZnCl2, 2 mM DTT, and protease inhibitors [1 mM phenylmethylsulfonyl fluoride (PMSF), 1 mg/mL leupeptin, and 1 mg/mL antipain]. Aliquots of the homogenates (40 μg total protein/lane) were loaded on SDS-polyacrylamide gels at the appropriate concentrations. Electrophoresis was performed at 100 V with a running buffer containing 0.25 M Tris-HCl (pH 8.3), 1.92 M glycine, and 1% SDS. The resolved proteins were electroblotted onto a nitrocellulose membrane using the iBlot™ system (Invitrogen, Carlsbad, CA). Membranes were then incubated with a mouse monoclonal IgG antibody to poly(ADP-ribose) polymerase (PARP) (Zymed, South San Francisco, CA), with a rabbit polyclonal IgG antibody to BID (Cell Signaling Technology, Danvers, MA) or with a rabbit polyclonal IgG antibody to α-tubulin (Cell Signaling Technology). The membranes were then washed and incubated with an anti-mouse or anti-rabbit IgG peroxidase-conjugated antibody (Cell Signaling Technology). The blots were washed again and then incubated with enhanced chemiluminescent detection reagents (Immun-Star™ WesternC™ Kit, Bio-Rad, Hercules, CA) according to the manufacturer's instructions. Proteins were detected using the ChemiDoc XRS Imaging System (Bio-Rad). […]

normal lymphocytes = test: Mitochondrial membrane potential, JC-1 staining; conditions: similar α-bisabolol concentration (40 μM)
Description: (§1) Cells resuspended in CM at 1 × 10^6/mL were treated with 40 μM α-bisabolol for 3 or 5 hours at 37°C. They were then washed with pre-warmed CM, 4 μM of the potential sensitive dye JC-1 (5,5',6,6'-tetra-chloro-1,1',3,3'-tetra-ethyl-benz-imidazolyl-carbocyanine iodide, Molecular Probes, Eugene, OR) was added, and they were then placed back into the incubator. After 30 minutes they were washed twice with pre-warmed PBS. An aliquot of each sample was spotted onto a slide, mounted with a coverslip and immediately recorded by an Axio Observer inverted microscope (Zeiss, Gottingen, DE). Visualization of JC-1 monomers (green fluorescence) and JC-1 aggregates (red fluorescence) was done using filter sets for fluorescein and rhodamine dyes (emission 488 and 550 nm respectively). Image captures of random fields using fixed imaging parameters were performed, and previously unviewed areas of cells were captured to avoid photobleaching. Image analysis was done using Axiovision 3 software. The other aliquot of each sample was resuspended in PBS and analyzed using a FACSCalibur cytometer (Becton Dickinson) equipped with a 488 nm argon laser. The emission of JC-1 monomers was detected in Fl-1 using a 530/30 nm bandpass filter, and JC-1 aggregates were detected in Fl-2 using a 585/42 nm bandpass filter. FlowJo 8.8.2 software (Tree Star, Ashland, OR) was used to analyze data.

leukemic blasts [2] = test: Mitochondrial membrane potential, JC-1 staining; conditions: 40 μM α-bisabolol, 3 and 5 hours, JC-1, 6 leukemias tested
Description: as §1

healthy lymphocytes = test: Oxygen consumption of permeabilized cells (oxygraph, Clark electrode); conditions: healthy lymphocytes of 6 donors, 3 μM α-bisabolol, 10 minutes, 30°C
Description: (§2) Leukemic cells and normal lymphocytes were centrifuged (10 minutes, 200 × g) and washed with ice cold buffer A (250 mM sucrose, 20 mM HEPES, 10 mM MgCl2 - pH 7.1). The pellet was resuspended in 2 mL of buffer A containing 80 μg of digitonin. After a 1-minute incubation on ice, 8 mL of buffer A were added and cells were centrifuged (3 minutes, 400 × g). The pellet was resuspended in 100 μL buffer A containing 1 mM ADP, 2 mM […] (respiration buffer) and immediately used for the polarographic assay. Cell number and permeabilization was measured by the trypan blue exclusion method. Permeabilized leukemic cells and lymphocytes were assayed for oxygen consumption at 30°C using a thermostatically controlled oxygraph and Clark electrode. Cells were incubated for 10 minutes in respiration buffer at 30°C in the presence or absence of 3 μM α-bisabolol. Mitochondrial respiration (state 3 respiration) was started by adding 5 mM glutamate plus malate (G/M) and 5 mM succinate plus glycerol-3-phosphate (S/[…]), which are complex I and […]/glycerol-3-phosphate dehydrogenase substrates, respectively. The maximal respiration rate (uncoupled respiration) was empirically determined by the addition of 200 nM carbonylcyanide-4- (trifluoromethoxy)-phenylhydrazone (FCCP).

[3] = system: permeabilized leukemic cells; test: as above
Description: as §2

## CC(C)=CCC[C@](C)(O)[C@@H]1CC=C(C)CC1 [α-bisabolol]
Leukemic blasts [1]
  PARP cleavage and DNA laddering: underwent PARP cleavage and DNA laddering
Normal lymphocytes
  mitochondrial transmembrane potential (ΔΨm): no mitochondrial damage
Leukemic blasts [2]
  mitochondrial transmembrane potential (ΔΨm): dissipates the mitochondrial transmembrane potential
Healthy lymphocytes
  respiration in state 3 (G/M, S/G3P) and with FCCP: not statistically modified
[3]; 3 μM α-bisabolol, 10 minutes, 30°C
  oxygen consumption sustained by S/G3P oxidation: not affected
[3]; 3 μM α-bisabolol, 10 minutes, 30°C, 6 leukemias, untreated controls 280.7 ± 11.9
  NADH-supported state 3 respiration (G/M) oxygen consumption: 140.0 ± 70.5 pmol O2/minute/10^6 cells
[3]; 3 μM α-bisabolol-treated leukemic cells, 200 nM FCCP
  stimulation of mitochondrial respiration by FCCP (uncoupled respiration): not stimulated
